The results in this text go back to patent US20200131142A1, “FARNESOID X RECEPTOR AGONISTS AND USES THEREOF” (Metacrine, Inc., priority 2017, published 2020).

Structures are written as SMILES.

This experiment deals with T1, hFXR (Homo sapiens, UniProt Q96RI1).
T1 construct: expressed in transfected cells; host or cells: CV-1 cells
T1 sequence (Q96RI1 1-486): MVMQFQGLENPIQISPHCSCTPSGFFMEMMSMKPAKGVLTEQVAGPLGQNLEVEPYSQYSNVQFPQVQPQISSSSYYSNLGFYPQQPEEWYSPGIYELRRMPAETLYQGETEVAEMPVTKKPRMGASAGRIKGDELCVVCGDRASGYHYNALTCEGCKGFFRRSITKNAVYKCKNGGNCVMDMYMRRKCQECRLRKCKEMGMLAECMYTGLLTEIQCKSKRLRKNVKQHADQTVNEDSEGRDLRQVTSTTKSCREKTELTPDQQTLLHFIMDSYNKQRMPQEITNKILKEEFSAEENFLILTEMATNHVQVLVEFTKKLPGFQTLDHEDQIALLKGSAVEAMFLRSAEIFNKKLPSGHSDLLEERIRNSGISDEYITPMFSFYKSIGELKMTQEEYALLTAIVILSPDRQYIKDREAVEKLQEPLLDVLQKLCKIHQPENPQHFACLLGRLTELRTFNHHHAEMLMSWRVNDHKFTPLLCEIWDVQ
T1 sequence (P19793 1-462 partner): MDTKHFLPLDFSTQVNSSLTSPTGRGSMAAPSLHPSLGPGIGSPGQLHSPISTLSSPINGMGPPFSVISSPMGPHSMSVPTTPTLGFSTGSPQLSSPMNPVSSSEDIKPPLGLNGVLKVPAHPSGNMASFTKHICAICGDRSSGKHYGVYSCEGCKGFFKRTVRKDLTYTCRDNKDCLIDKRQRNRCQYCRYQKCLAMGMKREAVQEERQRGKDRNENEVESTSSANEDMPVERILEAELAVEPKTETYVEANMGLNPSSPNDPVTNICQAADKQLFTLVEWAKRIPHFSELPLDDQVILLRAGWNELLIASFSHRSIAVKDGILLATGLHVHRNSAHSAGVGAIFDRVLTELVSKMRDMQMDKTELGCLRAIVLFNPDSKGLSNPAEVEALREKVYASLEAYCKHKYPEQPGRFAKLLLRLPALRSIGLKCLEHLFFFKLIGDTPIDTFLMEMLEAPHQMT
Nature of the experiment: In Vitro FXR Assay (TK): hFXR/hRXR TK-ECRE-luc reporter in transfected CV-1 cells. As to conditions: 18 hrs incubation, luminescence, compounds with maximum efficacy <25% of the Fexarmine control classified as '+'. The experiment is classed as cell-based. The gist of the method:
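CV-1 cells in DMEM with 10% charcoal-stripped FBS were transiently co-transfected with hFXR, hRXR, TK-ECRE-luc reporter and pCMX-YFP plasmids over 18 h at 37 °C. Compounds serially diluted in DMSO were added for 18 h; cells were then lysed and luciferase luminescence measured.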
Regarding `COc1ncc(-c2cccc(N(C[C@H]3CC[C@H](c4ccc(OC)c(C)c4)CC3)C(=O)C3CCOCC3)c2)s1` [Compound 9.30, N-((trans-4-(4-Methoxy-3-methylphenyl)cyclohexyl)methyl)-N-(3-(2-methoxythiazol-5-yl)phenyl)tetrahydro-2H-pyran-4-carboxamide], the EC50 (in general, the concentration giving half of the maximal effect) is at most 250 nM.

In turn, `COc1ccc([C@H]2CC[C@H](CN(c3cc(-c4cnc(C(C)C)s4)ccn3)C(=O)[C@H]3CC[C@H](O)CC3)CC2)cc1C` [Compound 9.28, trans-4-Hydroxy-N-(4-(2-isoporpylthiazol-5-yl)pyridin-2-yl)-N-((trans-4-(4-methoxy-3-methylphenyl)cyclohexyl)methyl) cyclohexanecarboxamide] yielded a half-maximal effective concentration (EC50) of at most 250 nM.

Consider `COc1ccc([C@H]2CC[C@H](CN(c3cccc(-c4ncc(C)s4)c3)C(=O)[C@H]3CC[C@H](O)CC3)CC2)cc1C` [Compound 7.03, trans-4-Hydroxy-N-((trans-4-(4-methoxy-3-metthylphenyl)cyclohexyl)methyl)-N-(3-(5-methylthiazol-2-yl)phenyl)cyclohexanecarboxamide], for which the half-maximal effective concentration (EC50) was at least 1000 nM.

Compound `COc1ccc(C23CCC(CN(c4cccc(C#Cc5nccs5)c4)C(=O)[C@H]4CC[C@H](O)CC4)(CC2)CC3)cc1C` [Compound 8.04, trans-4-Hydroxy-N-((4-(4-methoxy-3-methylphenyl)bicyclo[2.2.2]octan-1-yl)methyl)-N-(3-(thiazol-2-ylethynyl)phenyl)cyclohexanecarboxamide] showed a concentration for a half-maximal effect (EC50) of at most 250 nM.

Consider `COc1ccc([C@H]2CC[C@H](CN(c3cc(-c4cnc(C5CC5)s4)ccn3)C(=O)[C@H]3CC[C@H](O)CC3)CC2)cc1C#N` [Compound 9.22, trans-N-((trans-4-(3-Cyano-4-methoxyphenyl)cyclohexyl)methyl)-N-(4-(2-cyclopropylthiazol-5-yl)pyridin-2-yl)-4-hydroxycyclohexanecarboxamide], for which the 50% effective concentration (EC50) was at most 250 nM.

`COc1ncc(-c2cccc(N(C[C@H]3CC[C@@H](c4ccc(OC)c(C)c4)CC3)C(=O)[C@H]3CC[C@H](O)CC3)c2)s1` [Compound 2, trans-4-Hydroxy-N-((cis-4-(4-methoxy-3-methylphenyl)cyclohexyl)methyl)-N-(3-(2-methoxythiazol-5-yl)phenyl)cyclohexanecarboxamide] showed a concentration for a half-maximal effect (EC50) of at least 1000 nM.

For the compound `COc1ncc(-c2cccc(N(C[C@H]3CC[C@H](c4ccc(OC)c(C)c4)CC3)C(=O)[C@H]3CC[C@H](O)CC3)c2)s1` [Compound 1, trans-4-Hydroxy-N-((trans-4-(4-methoxy-3-methylphenyl)cyclohexyl)methyl)-N-(3-(2-methoxythiazol-5-yl)phenyl)cyclohexanecarboxamide], the EC50 is at most 250 nM.

Compound `COc1ccc([C@H]2CC[C@H](CN(c3cccc(-c4cnc(OC(C)C)s4)c3)C(=O)[C@H]3CC[C@H](O)CC3)CC2)cc1C` [Compound 7.17, trans-4-Hydroxy-N-(3-(2-isopropoxythiazol-5-yl)phenyl)-N-((trans-4-(4-methoxy-3-methylphenyl)cyclohexyl)methyl) cyclohexanecarboxamide] gave an EC50 of at most 250 nM.

Take `COc1ncc(-c2cccc(N(C[C@@H]3CC[C@@H](c4ccc(OC)c(C)c4)CC3C)C(=O)[C@H]3CC[C@H](O)CC3)c2)s1` (stereo partly drawn) [Compound 9.11, trans-4-Hydroxy-N-((trans-4-(4-methoxy-3-methylphenyl)-2-methylcyclohexyl)methyl)-N-(3-(2-methoxythiazol-5-yl)phenyl)cyclohexanecarboxamide]: the EC50 is at most 250 nM.

`Cn1nc(F)c2cc([C@H]3CC[C@H](CN(c4cccc(-c5cnc(C6CC6)s5)c4)C(=O)[C@H]4CC[C@H](O)CC4)CC3)ccc21` [Compound 9, trans-N-(3-(2-Cyclopropylthiazol-5-yl)phenyl)-N-((trans-4-(3-fluoro-1-methyl-1H-indazol-5-yl)cyclohexyl)methyl)-4-hydroxycyclohexanecarboxamide] showed an EC50 of at most 250 nM.

Compound `COc1ccc([C@H]2CC[C@H](CN(c3cccc(-c4cnc(C(F)F)s4)c3)C(=O)[C@H]3CC[C@H](O)CC3)CC2)cc1C` [Compound 7.22, trans-N-(3-(2-(Difluoromethyl)thiazol-5-yl)phenyl)-4-hydroxy-N-((trans-4-(4-methoxy-3-methylphenyl)cyclohexyl)methyl) cyclohexanecarboxamide] displayed an EC50 of at most 250 nM.

For the compound `COc1ccc([C@H]2CC[C@H](CN(c3cccc(-c4cnc(C5CC5)s4)c3)C(=O)[C@H]3CC[C@H](O)CC3)CC2)cc1Cl` [Compound 9.03, trans-N-((trans-4-(3-Chloro-4-methoxyphenyl)cyclohexyl)methyl)-N-(3-(2-cyclopropylthiazol-5-yl)phenyl)-4-hydroxycyclohexanecarboxamide], the EC50 was at most 250 nM.
